Tested on: 782815-120-R-J1-PDC complex spheroid viability
Assay: Anticancer human tumor 782815-120-R-J1-PDC patient-derived colon adenocarcinoma cell line growth inhibition [RAS]
Conditions: for IC50: curve of first compound; for viability, T/C: stronger effect = lower value
How it was run: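 Tumour cells grown as complex spheroids with HUVEC endothelial cells and mesenchymal stem cells, treated with RAS pathway inhibitor combinations. Each agent spans half-log steps from near clinical Cmax, or 10 microM where Cmax is unknown.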
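Further: spheroids exposed to compounds for 7 days before reading.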
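Wherever viability, T/C is given: 100% = DMSO vehicle control viability.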

## CC(C)NCC(C(=O)N1CCN(c2ncnc3c2C(C)CC3O)CC1)c1ccc(Cl)cc1 (centres undefined) + C=CC(=O)N1CCN(c2nc(OCC3CCCN3C)nc3c(F)c(-c4nc(N)cc(C)c4C(F)(F)F)c(Cl)cc23)C(C)C1
Second compound 0.00316 µM
  IC50: > 10 µM
Second compound 0.01 µM
  IC50: > 10 µM
Second compound 0.0316 µM
  IC50: > 10 µM
Second compound 0.1 µM
  IC50: > 10 µM
Second compound 0.316 µM
  IC50: > 10 µM
Second compound 1 µM
  IC50: > 10 µM
Second compound 0.00316 µM, first compound 0.0316 µM
  viability, T/C: 98.4%
Second compound 0.00316 µM, first compound 0.1 µM
  viability, T/C: 97%
Second compound 0.00316 µM, first compound 0.316 µM
  viability, T/C: 102%
Second compound 0.00316 µM, first compound 1 µM
  viability, T/C: 92%
Second compound 0.00316 µM, first compound 3.16 µM
  viability, T/C: 99%
Second compound 0.00316 µM, first compound 10 µM
  viability, T/C: 98.7%
Second compound 0.01 µM, first compound 0.0316 µM
  viability, T/C: 101%
Second compound 0.01 µM, first compound 0.1 µM
  viability, T/C: 93.3%
Second compound 0.01 µM, first compound 0.316 µM
  viability, T/C: 91.1%
Second compound 0.01 µM, first compound 1 µM
  viability, T/C: 93.2%
Second compound 0.01 µM, first compound 3.16 µM
  viability, T/C: 101%
Second compound 0.01 µM, first compound 10 µM
  viability, T/C: 96.9%
Second compound 0.0316 µM, first compound 0.0316 µM
  viability, T/C: 96.2%
Second compound 0.0316 µM, first compound 0.1 µM
  viability, T/C: 96.8%
Second compound 0.0316 µM, first compound 0.316 µM
  viability, T/C: 94.3%
Second compound 0.0316 µM, first compound 1 µM
  viability, T/C: 87.9%
Second compound 0.0316 µM, first compound 3.16 µM
  viability, T/C: 96.3%
Second compound 0.0316 µM, first compound 10 µM
  viability, T/C: 101%
Second compound 0.1 µM, first compound 0.0316 µM
  viability, T/C: 104%
Second compound 0.1 µM, first compound 0.1 µM
  viability, T/C: 95.2%
Second compound 0.1 µM, first compound 0.316 µM
  viability, T/C: 96.4%
Second compound 0.1 µM, first compound 1 µM
  viability, T/C: 94.5%
Second compound 0.1 µM, first compound 3.16 µM
  viability, T/C: 95.9%
Second compound 0.1 µM, first compound 10 µM
  viability, T/C: 104%
Second compound 0.316 µM, first compound 0.0316 µM
  viability, T/C: 106%
Second compound 0.316 µM, first compound 0.1 µM
  viability, T/C: 93.4%
Second compound 0.316 µM, first compound 0.316 µM
  viability, T/C: 93%
Second compound 0.316 µM, first compound 1 µM
  viability, T/C: 88.5%
Second compound 0.316 µM, first compound 3.16 µM
  viability, T/C: 96.7%
Second compound 0.316 µM, first compound 10 µM
  viability, T/C: 92.6%
Second compound 1 µM, first compound 0.0316 µM
  viability, T/C: 105%
Second compound 1 µM, first compound 0.1 µM
  viability, T/C: 100%
Second compound 1 µM, first compound 0.316 µM
  viability, T/C: 92.5%
Second compound 1 µM, first compound 1 µM
  viability, T/C: 98.9%
Second compound 1 µM, first compound 3.16 µM
  viability, T/C: 103%
Second compound 1 µM, first compound 10 µM
  viability, T/C: 99.1%

## CC(Nc1ccc2c(c1)OCCn1cc(N3C(=O)OCC3C(F)F)nc1-2)C(N)=O (centres undefined) + CCn1c(-c2cc(N3CCN(C)CC3)cnc2C(C)OC)c2c3cc(ccc31)-c1csc(n1)CC(NC(=O)C1CC1C)C(=O)N1CCCC(N1)C(=O)OCC(C)(C)C2
Second compound 0.000949 µM
  IC50: > 10 µM
Second compound 0.003 µM
  IC50: 0.195 µM
Second compound 0.00949 µM
  IC50: < 0.0316 µM
Second compound 0.03 µM
  IC50: < 0.0316 µM
Second compound 0.0949 µM
  IC50: < 0.0316 µM
Second compound 0.3 µM
  IC50: < 0.0316 µM
Second compound 0.000949 µM, first compound 0.0316 µM
  viability, T/C: 75.1%
Second compound 0.000949 µM, first compound 0.1 µM
  viability, T/C: 73.5%
Second compound 0.000949 µM, first compound 0.316 µM
  viability, T/C: 76%
Second compound 0.000949 µM, first compound 1 µM
  viability, T/C: 62.9%
Second compound 0.000949 µM, first compound 3.16 µM
  viability, T/C: 73.8%
Second compound 0.000949 µM, first compound 10 µM
  viability, T/C: 78.5%
Second compound 0.003 µM, first compound 0.0316 µM
  viability, T/C: 53.1%
Second compound 0.003 µM, first compound 0.1 µM
  viability, T/C: 54.9%
Second compound 0.003 µM, first compound 0.316 µM
  viability, T/C: 46.4%
Second compound 0.003 µM, first compound 1 µM
  viability, T/C: 47.5%
Second compound 0.003 µM, first compound 3.16 µM
  viability, T/C: 45.1%
Second compound 0.003 µM, first compound 10 µM
  viability, T/C: 51.8%
Second compound 0.00949 µM, first compound 0.0316 µM
  viability, T/C: 29.8%
Second compound 0.00949 µM, first compound 0.1 µM
  viability, T/C: 31.2%
Second compound 0.00949 µM, first compound 0.316 µM
  viability, T/C: 27.9%
Second compound 0.00949 µM, first compound 1 µM
  viability, T/C: 24.9%
Second compound 0.00949 µM, first compound 3.16 µM
  viability, T/C: 24.1%
Second compound 0.00949 µM, first compound 10 µM
  viability, T/C: 25.3%
Second compound 0.03 µM, first compound 0.0316 µM
  viability, T/C: 19.8%
Second compound 0.03 µM, first compound 0.1 µM
  viability, T/C: 18.4%
Second compound 0.03 µM, first compound 0.316 µM
  viability, T/C: 15%
Second compound 0.03 µM, first compound 1 µM
  viability, T/C: 15.6%
Second compound 0.03 µM, first compound 3.16 µM
  viability, T/C: 16.2%
Second compound 0.03 µM, first compound 10 µM
  viability, T/C: 13.1%
Second compound 0.0949 µM, first compound 0.0316 µM
  viability, T/C: 15.4%
Second compound 0.0949 µM, first compound 0.1 µM
  viability, T/C: 15.1%
Second compound 0.0949 µM, first compound 0.316 µM
  viability, T/C: 11.4%
Second compound 0.0949 µM, first compound 1 µM
  viability, T/C: 11.5%
Second compound 0.0949 µM, first compound 3.16 µM
  viability, T/C: 13.5%
Second compound 0.0949 µM, first compound 10 µM
  viability, T/C: 11.9%
Second compound 0.3 µM, first compound 0.0316 µM
  viability, T/C: 15.6%
Second compound 0.3 µM, first compound 0.1 µM
  viability, T/C: 13%
Second compound 0.3 µM, first compound 0.316 µM
  viability, T/C: 10.1%
Second compound 0.3 µM, first compound 1 µM
  viability, T/C: 11.8%
Second compound 0.3 µM, first compound 3.16 µM
  viability, T/C: 11.9%
Second compound 0.3 µM, first compound 10 µM
  viability, T/C: 11.8%
